Key:
[1] = target: T1, calcium sensing receptor (CASR) (Rattus norvegicus, UniProt P48442); assay: phospho-ERK in HEK-293 cells transfected with calcium sensing receptor; type: cell-based; conditions: HEK293 transfected with CASR
T1 construct: expressed in transfected cells; host or cells: HEK-293
T1 sequence (P48442 20-1079): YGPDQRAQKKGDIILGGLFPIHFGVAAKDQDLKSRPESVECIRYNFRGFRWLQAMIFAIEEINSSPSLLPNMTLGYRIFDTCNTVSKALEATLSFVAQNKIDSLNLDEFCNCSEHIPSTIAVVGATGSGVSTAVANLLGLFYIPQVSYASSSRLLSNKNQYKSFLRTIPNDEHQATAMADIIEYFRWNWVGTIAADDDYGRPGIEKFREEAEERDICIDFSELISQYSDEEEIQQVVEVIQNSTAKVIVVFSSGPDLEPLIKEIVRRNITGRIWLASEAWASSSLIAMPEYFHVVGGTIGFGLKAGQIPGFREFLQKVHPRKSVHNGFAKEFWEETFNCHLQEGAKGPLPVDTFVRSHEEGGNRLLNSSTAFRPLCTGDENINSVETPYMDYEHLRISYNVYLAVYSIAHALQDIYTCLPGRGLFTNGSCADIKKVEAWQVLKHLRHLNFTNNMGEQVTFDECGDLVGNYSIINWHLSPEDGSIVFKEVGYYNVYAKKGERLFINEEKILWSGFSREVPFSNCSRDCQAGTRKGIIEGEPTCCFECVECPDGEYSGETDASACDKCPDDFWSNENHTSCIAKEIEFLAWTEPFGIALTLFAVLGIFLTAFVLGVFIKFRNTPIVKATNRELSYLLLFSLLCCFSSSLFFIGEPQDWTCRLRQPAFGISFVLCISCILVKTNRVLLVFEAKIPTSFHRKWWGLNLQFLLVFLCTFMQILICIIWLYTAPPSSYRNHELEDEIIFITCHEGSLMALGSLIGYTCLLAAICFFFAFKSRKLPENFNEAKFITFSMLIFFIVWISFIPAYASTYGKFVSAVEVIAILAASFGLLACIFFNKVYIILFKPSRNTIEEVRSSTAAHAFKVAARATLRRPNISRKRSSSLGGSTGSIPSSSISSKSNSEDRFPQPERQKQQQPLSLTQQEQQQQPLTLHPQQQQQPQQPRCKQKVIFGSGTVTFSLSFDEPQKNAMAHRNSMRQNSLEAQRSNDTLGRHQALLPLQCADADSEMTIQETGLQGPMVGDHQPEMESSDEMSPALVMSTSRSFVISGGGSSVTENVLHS
Experimental: Equal amounts of lysates were subjected to 10% SDS-PAGE, and phospho-ERK1/2 levels were determined by immunoblotting using antiphospho-ERK1/2 mitogen-activated protein kinase antibody (Cell Signaling Technology). […] An anti-peptide antibody was raised in a rabbit against a peptide ([…] (SEQ ID NO: 27)) corresponding to a sequence in the extracellular domain of mouse GPRC6A (in exon 1 of mouse GPRC6A gene) produced by Abgent (San Diego, Calif.). For phospho-ERK, the phospho-ERK1/2 levels were determined by immunoblotting using anti-phospho-ERK1/2 mitogen-activated protein kinase antibody (Cell Signaling Technology). Urinary β2-microglobulin was detected by rabbit polyclonal anti-β2-microglobulin antibody (Abcam Inc.). For aromatase expression analysis, the rabbit polyclonal anti-aromatase antibody (Abcam Inc.) and goat anti-rabbit IgG HRP secondary antibody (Santa Cruz Biotechnology Inc.) were used. Mouse anti-Actin antibody (Santa Cruz Biotechnology Inc.) was used for control protein loading.

[2] = test system: bone marrow and testes; assay: phospho-ERK activity and Egr-1 expression in bone marrow and testes in vivo; parameters: species or system mouse; conditions: 200 mg/kg intraperitoneally
Experimental: To establish a linkage between non-genomic effects of androgens and tissue responses in vivo, we examined the impact of loss of GPRC6A on the capacity of testosterone to stimulate phospho-ERK activity and early growth-responsive 1 (Egr-1) expression in bone marrow and testes in vivo (FIGS. 8D and 8E). To accomplish this, we administered testosterone at a dose of 200 MG/KG or vehicle intraperitonealy to wild-type and GPRC6A^−/− male mice.
To establish a linkage between non-genomic effects of androgens and tissue responses in vivo, we examined the impact of loss of GPRC6A on the capacity of testosterone to stimulate phospho-ERK activity and early growth-responsive 1 (Egr-1) expression in bone marrow and testes (FIG. 8E). To accomplish this, we administered testosterone at a dose of 200 mg/kg or vehicle intraperitoneally to wild-type and GPRC6A^−/− male mice. Bone marrow was harvested at 20 and 60 minutes for assessment of ERK phosphorylation and Egr-1 mRNA expression.

SMILES: C[C@]12CC[C@H]3[C@@H](CCC4=CC(=O)CC[C@@]43C)[C@@H]1CC[C@@H]2O [testosterone]
- phospho-ERK response [1]: did not responded
- Egr-1 expression in bone marrow and testes ([2]; GPRC6A-/- male mice): markedly attenuated
- phospho-ERK activity in bone marrow and testes ([2]; GPRC6A-/- male mice): markedly attenuated
- Egr-1 expression in bone marrow and testes ([2]; wild-type male mice): stimulated
- phospho-ERK activity in bone marrow and testes ([2]; wild-type male mice): stimulated

Reference: US20090142323A1, “METHODS FOR TREATING A DISORDER BY REGULATING GPRC6A” (priority 2007, published 2009)
